Assay results: PubChem BioAssay (NCI)
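Exposure lasted 48 hours, with cells grown in 96-well plates and compounds tested at five concentrations. TGI is the concentration that stops growth completely.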

How the values were obtained:
Assay in all cases: NCI tumour cell line growth inhibition, 48 h
NCI-H226 lung = system: NCI-H226 lung
DMS 114 small cell lung = system: DMS 114 small cell lung
OVCAR-4 ovarian = system: OVCAR-4 ovarian
RPMI-8226 leukemia = system: RPMI-8226 leukemia
M14 melanoma = system: M14 melanoma
SK-MEL-5 melanoma = system: SK-MEL-5 melanoma
HCT-116 colon = system: HCT-116 colon
SW-620 colon = system: SW-620 colon
786-0 renal = system: 786-0 renal
DLD-1 colon = system: DLD-1 colon
XF 498 CNS = system: XF 498 CNS
SR leukemia = system: SR leukemia
LOX IMVI melanoma = system: LOX IMVI melanoma
HOP-62 NSCLC = system: HOP-62 NSCLC
LXFL 529 NSCLC = system: LXFL 529 NSCLC
SNB-78 CNS = system: SNB-78 CNS
RXF 393 renal = system: RXF 393 renal
OVCAR-3 ovarian = system: OVCAR-3 ovarian
OVCAR-5 ovarian = system: OVCAR-5 ovarian
HOP-92 NSCLC = system: HOP-92 NSCLC
CAKI-1 renal = system: CAKI-1 renal
TK-10 renal = system: TK-10 renal
NCI-H23 lung = system: NCI-H23 lung
UACC-257 melanoma = system: UACC-257 melanoma
SF-539 CNS = system: SF-539 CNS
SNB-75 CNS = system: SNB-75 CNS
MALME-3M melanoma = system: MALME-3M melanoma
UO-31 renal = system: UO-31 renal
MOLT-4 leukemia = system: MOLT-4 leukemia
SN12C renal = system: SN12C renal
SK-OV-3 ovarian = system: SK-OV-3 ovarian
COLO 205 colon = system: COLO 205 colon
NCI-H522 lung = system: NCI-H522 lung
SF-268 CNS = system: SF-268 CNS
HCT-15 colon = system: HCT-15 colon
CCRF-CEM leukemia = system: CCRF-CEM leukemia
KM20L2 colon = system: KM20L2 colon
ACHN renal = system: ACHN renal
KM12 colon = system: KM12 colon
UACC-62 melanoma = system: UACC-62 melanoma
DMS 273 small cell lung = system: DMS 273 small cell lung
HL-60(TB) leukemia = system: HL-60(TB) leukemia
U251 CNS = system: U251 CNS
IGROV1 ovarian = system: IGROV1 ovarian
SF-295 CNS = system: SF-295 CNS
SK-MEL-28 melanoma = system: SK-MEL-28 melanoma
NCI-H460 lung = system: NCI-H460 lung
HT29 colon = system: HT29 colon
HCC-2998 colon = system: HCC-2998 colon
K-562 leukemia = system: K-562 leukemia
OVCAR-8 ovarian = system: OVCAR-8 ovarian
A549 NSCLC = system: A549 NSCLC
M19-MEL melanoma = system: M19-MEL melanoma
SK-MEL-2 melanoma = system: SK-MEL-2 melanoma
SNB-19 CNS = system: SNB-19 CNS
A498 renal = system: A498 renal
HOP-18 NSCLC = system: HOP-18 NSCLC
EKVX NSCLC = system: EKVX NSCLC

Measured: TGI

OCCCCOC(c1ccccc1)(c1ccccc1)c1ccccc1
not listed: M19-MEL melanoma | SK-MEL-2 melanoma | SNB-19 CNS | A498 renal | HOP-18 NSCLC | EKVX NSCLC
> 100 µM: all other assays above

O=C(Nc1c(O)[nH]c(=S)[nH]c1=O)c1ccco1
not listed: DLD-1 colon | XF 498 CNS | RXF 393 renal | DMS 273 small cell lung | HCC-2998 colon | EKVX NSCLC
> 100 µM: all other assays above

COc1ccccc1/C=C1\C(=O)N(C(=O)c2ccc(NC(C)=O)cc2)N=C1C
not listed: M14 melanoma | LXFL 529 NSCLC | RXF 393 renal | HOP-92 NSCLC | SK-OV-3 ovarian | KM20L2 colon | UACC-62 melanoma | IGROV1 ovarian | A498 renal | HOP-18 NSCLC
> 100 µM: all other assays above
